By bioavailability is commonly meant dose-corrected exposure relative to a reference, in per cent. A lower bioavailability goes with little systemic uptake. Usually AUC stands for the area under the concentration-time curve, a measure of exposure. Read a high AUC as more exposure. Usually Cmax stands for the peak of the concentration-time curve. For orientation: Tmax means the time at which the peak concentration occurs. In general, EC50 refers to the midpoint of the concentration-response curve.

A short description of data set [1]: Pharmacokinetics in mice administrated with single compound. It is filed as in vivo, mice (C57BL/6J). As to conditions: mouse, plasma, male C57BL/6J mice; for bioavailability: oral 10 mg/kg vs intravenous 2 mg/kg; for AUC / Cmax / Tmax: oral (intragastrical) 10 mg/kg. Here is the method: 12 male mice (C57BL/6J) were randomly divided into two groups, i.e., 6 mice per group. […] Plasma (using K2-EDTA as anticoagulant) samples were taken at 0.083, 0.25, 0.5, 1, 2, 4, 6, 8 and 24 hours in the intravenous administration group after administration; and plasma samples were taken at 0.25, 0.5, 1, 2, 4, 6, 8 and 24 hours in the oral administration group after administration. For 6 animals in each group, blood samples were collected for 3 animals at one time point. The first batch of 3 animals was alternately sampled with the second batch of 3 animals. Plasma sample analysis was performed by using LC-MS/MS. The resultant plasma concentrations were plotted with respect to time, and PK parameters were calculated by using Phoenix WinNonlin 6.3.

Data set [2] in a line: Solid-state stability test (XRPD detection). It is filed as physicochemical. As to conditions: room temperature/75% RH, 40° C./75% RH, 60° C./75% RH (all open); for Solid-state stability: crystalline form by XRPD compared with Day 0: room temperature/92.5% RH, Day 5 and Day 10. As for the experimental part: In the present application, the X-ray powder diffraction patterns are measured by the following method: instrument: Bruker D8 ADVANCE X-ray diffractometer; method: target: Cu: K-Alpha; wavelength: λ=1.54179 Å; tube voltage: 40 kV; divergence slit: 0.60 mm; detector slit: 10.50 mm; antiscattering slit: 7.10 mm; tube current: 40 mA; scan range: 4° to 40°; scanning speed: 0.12 sec/step, 0.02°/step; sample tray rotation speed: 15 rpm.
The solid-state stability of crystalline Form A was examined under the following conditions: 1) 40° C. (open), 2) 60° C. (open), 3) room temperature/92.5% RH (open), 4) room temperature/75% RH (open), 5) 40° C./75% RH (open), and 6) 60° C./75% RH (open), wherein the room temperature was selected from 20° C. to 30° C.
Several samples of crystalline Form A in a suitable amount were taken, and placed on the bottom of the glass specimen bottles and spread into a thin layer. The bottles with the samples to be placed under the abovementioned conditions were capped with aluminum-foil paper which has been punched with several small holes, which ensures that the samples could be in full contact with the ambient air.
The solid-state stability of crystalline Form B was examined under the following conditions: 1) room temperature/92.5% RH (open), 2) room temperature/75% RH (open), 3) 40° C./75% RH (open), and 4) 60° C./75% RH (open), which the room temperature was selected from 20° C. to 30° C.
Several samples of crystalline Form B in a suitable amount were taken, and placed on the bottom of the glass specimen bottles and spread into a thin layer. The bottles with the samples to be placed under the abovementioned conditions were capped with aluminum-foil paper which has been punched with several small holes, which ensures that the samples could be in full contact with the ambient air.
The solid-state stability for the solid amorphous form of the compound of formula I was examined under the following conditions: 1) room temperature/75% RH (open), 2) 40° C./75% RH (open), 3) 60° C./75% RH (open), wherein the room temperature was selected from 20° C. to 30° C. […]

Data set [3] concerns the target T1, Glutathione-S-transferase-labeled FXR human protein (Homo sapiens, UniProt Q96RI1).
T1 sequence (Q96RI1 1-486): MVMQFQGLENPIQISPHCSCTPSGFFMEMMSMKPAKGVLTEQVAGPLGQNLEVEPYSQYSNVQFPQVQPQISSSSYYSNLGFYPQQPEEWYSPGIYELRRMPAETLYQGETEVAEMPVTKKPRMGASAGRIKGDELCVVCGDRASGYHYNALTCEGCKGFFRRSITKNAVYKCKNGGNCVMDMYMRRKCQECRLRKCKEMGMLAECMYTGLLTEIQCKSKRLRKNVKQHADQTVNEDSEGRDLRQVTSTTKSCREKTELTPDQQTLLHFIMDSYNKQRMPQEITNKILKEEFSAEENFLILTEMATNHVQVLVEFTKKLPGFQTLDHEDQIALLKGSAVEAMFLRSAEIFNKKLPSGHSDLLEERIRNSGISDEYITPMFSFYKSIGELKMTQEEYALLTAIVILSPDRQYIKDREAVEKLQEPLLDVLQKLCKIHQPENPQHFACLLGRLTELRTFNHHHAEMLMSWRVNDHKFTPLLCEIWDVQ
Put plainly: FXR biochemical experiment (AlphaScreen, coactivator recruitment). Here is the method:
The activation effect of the compound on FXR binding reaction was detected by AlphaScreen. […] Protein: Glutathione-S-transferase-labeled FXR human protein (Invitrogen) 2. Co-activator: Biotin-labeled steroid receptor coactivator (Anaspec) 3. […] Compound Dilution: The compound to be tested was prepared as a 40 μM DMSO solution, and then diluted 3-fold to 10 concentration points. The reference compound was prepared as a 400 μM DMSO solution, and then diluted 1.5-fold to 10 concentration points. The diluted DMSO solution was added to the wells of a 384-well plate in a volume of 150 nL per well. 2. […] 4. […] The operation during the experimental process was protected from light. The incubation was performed for 1 hour at room temperature. 5. […] The operation during the experimental process was protected from light. The incubation was performed for 1 hour at room temperature. 6. EC50 test: Envision was used with excitation at 680 nm to read the absorbance signals at 520-620 nm. 7. Analytical data: The data were analyzed via using Prism 5.0, and the EC50 values of the activation effects of the compound were calculated.

Data set [4] concerns the target T2, FXR (FXR HEK 293T DA cells) (Homo sapiens, UniProt Q96RI1).
T2 sequence (Q96RI1 262-486 limits assumed): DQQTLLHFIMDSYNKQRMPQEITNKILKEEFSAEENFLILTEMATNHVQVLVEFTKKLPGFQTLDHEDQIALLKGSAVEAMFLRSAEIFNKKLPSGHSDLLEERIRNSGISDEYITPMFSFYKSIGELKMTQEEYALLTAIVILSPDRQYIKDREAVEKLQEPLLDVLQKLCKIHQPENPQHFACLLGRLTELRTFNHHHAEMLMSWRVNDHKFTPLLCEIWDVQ
Description: FXR cell experiment (β-lactamase reporter gene). Type of data set: cell-based. Here is the method: 2. Cell culture medium: DMEM medium supplemented with 10% serum and Penicillin/Streptomycin (1×)
3. Detection reagent: GeneBLAzer® Reporter Gene Detection Kit (Invitrogen)
1. Compound Dilution: The compound to be tested was prepared as a 100 μM DMSO solution, and then the compound was diluted 3-fold to 10 concentration points. The reference compound was prepared as a 100 μM DMSO solution, and then diluted 1.3-fold to 10 concentration points. The diluted DMSO solution was added to the wells of a 384-well plate in a volume of 200 nL per well.
3. The 384-well plate was incubated at 37° C., 5% CO2 for 16 hours.
4. 6 μL of 1 mM LiveBLAzer™-FRET 13/G (CCF4-AM) substrate was mixed with 60 μL of B solution and 934 μL of C solution, and added to the wells of the 384-well plate in a volume of 8 μL per well.
5. The 384-well plate was incubated in dark for 2 hours at room temperature.
7. Analytical data: The data was analyzed via using Prism 5.0, and the EC50 values of the activation effects of the compound were calculated.

Data set [5] in a line: Test for hygroscopicity, Dynamic Vapor Sorption (DVS). Type of data set: physicochemical. As to conditions: 25±1° C., 80±2% RH. As for the experimental part:
Dynamic Vapor Sorption (DVS) analysis was performed on crystalline Form A and the solid amorphous form of the compound of formula I by the following process and conditions: the samples (10 to 15 mg) were placed in the sample pan; instrument model: SMS DVS Advantage Dynamic Vapor Sorption; temperature: 25° C.; balance: dm/dt=0.01%/min (Min: 10 min, Max: 180 min); drying: for 120 min at 0% RH; RH (%) gradient for testing: 10%; the RH (%) range for gradient testing: 0%-90%-0%. The hygroscopicity was evaluated using the following scale: […]

With `CC[C@H]1[C@@H](O)[C@@H]2[C@H](CC[C@]3(C)[C@@H]([C@H](C)CCC(=O)O)CC[C@@H]23)[C@@]2(C)CC[C@@H](O)C[C@@H]12` [Obeticholic acid, reference compound], in data set [1], the bioavailability turned out to be 13%, the AUC is 0.993 µM·h, the Cmax turned out to be 1010 nM and the Tmax stood at 18 min.

For `CC[C@H]1[C@@H](O)[C@@H]2[C@H](CC[C@]3(C)[C@@H]([C@H](C)CCOc4ncc(C(=O)O)cc4Cl)CC[C@@H]23)[C@@]2(C)CC[C@@H](O)C[C@@H]12` [crystalline Form B], the “Solid-state stability: crystalline form by XRPD compared with Day 0” value in data set [2] is on record as “remained unchanged”.

On to `CC[C@H]1[C@@H](O)[C@@H]2[C@H](CC[C@]3(C)[C@@H]([C@H](C)CCOc4ncc(C(=O)O)cc4Cl)CC[C@@H]23)[C@@]2(C)CC[C@@H](O)C[C@@H]12` [The compound of formula I], for which the EC50 in data set [3] (AlphaScreen, GST-FXR human protein with biotin-labeled steroid receptor coactivator, read-out: FXR enzyme activity EC50) was found to be 2.5 nM. In addition, the “FXR enzyme activity Efficacy” value in data set [3] (highest signal relative to the reference compound) is 248%. The EC50 in data set [4] (FXR HEK 293T DA cells, β-lactamase reporter gene, 16 hours, read-out: FXR cell viability EC50) came out at 3 nM. In data set [4] (highest signal relative to reference compound CDCA), the “FXR cell viability Efficacy” value came to 150%. Besides, in data set [1], the bioavailability is 20%, the AUC worked out at 1.11 µM·h, the peak level (Cmax) was 1780 nM and the time to peak (Tmax) was 30 min.

Consider `CC[C@H]1[C@@H](O)[C@@H]2[C@H](CC[C@]3(C)[C@@H]([C@H](C)CCOc4ncc(C(=O)O)cc4Cl)CC[C@@H]23)[C@@]2(C)CC[C@@H](O)C[C@@H]12` [crystalline Form A], for which the “Solid-state stability: crystalline form by XRPD compared with Day 0” value in data set [2] (40° C., 60° C.) is “remained unchanged”. This compound also had a hygroscopic weight gain in data set [5] of 0.835%.

For `CC[C@H]1[C@@H](O)[C@@H]2[C@H](CC[C@]3(C)[C@@H]([C@H](C)CCOc4ncc(C(=O)O)cc4Cl)CC[C@@H]23)[C@@]2(C)CC[C@@H](O)C[C@@H]12` [solid amorphous form of the compound of formula I], in data set [2] (Day 10 and one month), the “Solid-state stability: XRPD compared with Day 0” value is “remained unchanged”. Further, the hygroscopic weight gain in data set [5] is reported as 1.775%.

The record behind these values is patent US11059853B2, “Crystalline or amorphous form of steroid derivative FXR agonist, preparation method therefor and use thereof” (Chia Tai Tianqing Pharmaceutical Group Co., Ltd., priority 2017, dated 2021).
